Results: the NIST ThermoML archive (doi:10.1016/j.fluid.2004.11.019)

Experiment: xn = mol fraction of the nth substance listed
Conditions: 323.15 K, Liquid

CCO [ethanol] + O
mass density [kg/m3]
Conditions	20000 kPa	30000 kPa	40000 kPa
x1 = 0.003	–	999	1003.1
x1 = 0.0042	–	998	1002
x1 = 0.0082	–	996.5	1000.5
x1 = 0.0119	–	995.2	999.2
x1 = 0.0158	–	993	996.9
x1 = 0.0184	–	991.5	995.5
x1 = 0.0219	–	990.4	994.4
x1 = 0.0255	–	988.7	992.7
x1 = 0.0279	–	987.1	991.1
x1 = 0.0315	–	986.3	990.2
x1 = 0.0366	–	983.6	987.6
x1 = 0.0392	–	982.4	986.3
x1 = 0.0439	–	980.8	984.7
x1 = 0.0483	–	978.8	982.7
x1 = 0.0516	–	978	982
x1 = 0.0559	–	976.6	980.5
x1 = 0.06	–	975.1	979.1
x1 = 0.0652	–	973.1	977
x1 = 0.0679	–	972.3	976.3
x1 = 0.0722	–	970.5	974.4
x1 = 0.0801	–	967.4	–
x1 = 0.084	–	967	–
x1 = 0.0879	–	965.3	–
x1 = 0.0926	–	963.7	–
x1 = 0.0958	–	962.6	–
x1 = 0.1006	–	961	–
x1 = 0.1111	–	957.3	–
x1 = 0.1225	949.2	953.4	–
x1 = 0.1296	946.9	951.1	–
x1 = 0.1402	943.3	947.6	–
x1 = 0.151	939.7	944	–
x1 = 0.1601	936.7	941.1	–
x1 = 0.1703	933.3	937.7	–
x1 = 0.18	930.1	934.6	–
x1 = 0.1903	926.8	931.4	–
x1 = 0.1996	923.8	928.4	–
x1 = 0.2269	915.3	920.1	–
x1 = 0.2502	908.5	913.5	–
x1 = 0.2745	901.6	906.7	–
x1 = 0.3009	894.7	899.8	–
x1 = 0.35	882.1	887.5	–
x1 = 0.4034	869.8	875.5	–
x1 = 0.4501	859.7	865.7	–
x1 = 0.498	850.6	856.8	–
x1 = 0.5501	841.2	847.6	–
x1 = 0.5998	833.5	839.6	–
x1 = 0.6489	825.3	832.1	–
x1 = 0.6967	818.4	825.4	–
x1 = 0.7475	811.7	818.8	–
x1 = 0.7996	804.9	812.3	–
x1 = 0.8484	799.1	806.6	–
x1 = 0.8993	793.2	800.9	–
x1 = 0.9503	787.7	795.6	–
x1 = 1	782.3	790.3	–
